Data taken from patent EP4692089A1, “NITROGEN-CONTAINING HETEROCYCLIC COMPOUND AS AAK1 INHIBITOR” (Alicorn Pharmaceutical Co., Ltd., priority 2023, dated 2024).
“And” between values parts separate entries of the source, which are not always exact repeats. Identical values can stand only once.

Tests used:
AAK1 = target: T1, AAK1 (Homo sapiens, UniProt Q2M2I8); test: Effect on AP2M1 phosphorylation in 293T cells co-transfected with AAK1 and AP2M1 (Western blot, anti-p-AP2M1); type: cell-based; settings: p-AP2M1 level, incubated 3 h
T1 construct: HA; expressed in transfected cells; host or cells: 293T cells
T1 sequence (Q2M2I8 whole entry): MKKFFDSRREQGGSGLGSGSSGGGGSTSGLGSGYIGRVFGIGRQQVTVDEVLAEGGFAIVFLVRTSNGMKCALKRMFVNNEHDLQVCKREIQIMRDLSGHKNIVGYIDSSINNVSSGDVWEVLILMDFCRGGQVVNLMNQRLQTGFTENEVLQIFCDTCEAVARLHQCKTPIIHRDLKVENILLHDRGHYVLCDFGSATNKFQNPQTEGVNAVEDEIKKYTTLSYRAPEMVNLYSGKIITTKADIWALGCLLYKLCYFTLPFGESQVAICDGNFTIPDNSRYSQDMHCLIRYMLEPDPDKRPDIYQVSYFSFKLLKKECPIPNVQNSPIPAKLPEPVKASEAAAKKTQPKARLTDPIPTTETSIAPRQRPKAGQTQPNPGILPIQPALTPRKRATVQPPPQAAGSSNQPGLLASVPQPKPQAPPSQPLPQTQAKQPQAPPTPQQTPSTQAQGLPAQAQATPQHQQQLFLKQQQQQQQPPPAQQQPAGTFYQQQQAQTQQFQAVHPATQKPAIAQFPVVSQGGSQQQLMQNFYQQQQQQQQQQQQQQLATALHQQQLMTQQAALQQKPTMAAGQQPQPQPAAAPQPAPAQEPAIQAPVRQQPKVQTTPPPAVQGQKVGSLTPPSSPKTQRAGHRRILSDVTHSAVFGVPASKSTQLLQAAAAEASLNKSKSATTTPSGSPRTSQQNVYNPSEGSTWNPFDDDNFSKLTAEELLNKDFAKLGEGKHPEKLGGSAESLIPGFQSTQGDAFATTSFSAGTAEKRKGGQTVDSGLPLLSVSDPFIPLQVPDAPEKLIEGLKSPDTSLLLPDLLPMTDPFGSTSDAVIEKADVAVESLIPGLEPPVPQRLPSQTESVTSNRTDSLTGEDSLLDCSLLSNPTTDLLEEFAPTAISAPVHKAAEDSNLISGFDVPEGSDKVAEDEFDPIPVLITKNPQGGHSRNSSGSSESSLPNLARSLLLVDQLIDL
From the text: Experimental objective: The objective of this test example is to determine the effect of compounds on AP2M1 phosphorylation in cells.
Background principle: Adaptor-associated kinase 1 (AAK1), also known as AP2-associated kinase 1, is a 104 kDa serine/threonine kinase. AAK1 interacts with the adaptor protein 2 (AP2) complex and phosphorylates the threonine residue in the micro-subunit of AP2 (AP2M1), thereby increasing its binding affinity for certain tyrosine-based or dileucine-based sorting signals of some membrane receptors. The inhibitory effect of compounds on AAK1 was evaluated by detecting the phosphorylation level of AP2M1 in cells, so as to screen candidate compounds.
On the second day, each T25 flask was co-transfected with 16 µg of plasmids (1 µg of AAK1/HA/pIRES and 15 µg of Flag/AP2MI/pcDNA) using a Lip2000 transfection reagent. On the third day, the cells were digested and resuspended, centrifuged at 1000 rpm for 5 minutes, and then seeded into 24-well plates at 450 µl per well (2 × 10^5 cells/well). Gradient dilutions of the compounds to be tested were prepared, 50 µl was added to each well, mixed thoroughly, and incubated at 37°C for 3 h. DMSO was set as a control, and cells without plasmid transfection were set as a blank control. After incubation, the cells were collected and washed twice with PBS. The cells were lysed on ice for 30 minutes using a cell lysis buffer containing the protease inhibitor PMSF. The concentration of protein samples was determined using a BCA kit. Protein electrophoresis: The voltage for the stacking gel was set at 60 V, and that for the separating gel was set at 120 V. After electrophoresis, electrotransfer was initiated. Electrotransfer conditions were set at 250 mA for 2 h. Blocking with 5% BSA was performed for 1 h. A specific primary antibody, anti-p-AP2M1, was added, and incubation was carried out overnight at 4°C on a shaker. Washing with TBST was conducted 4 times, with 2.5 minutes each time. A secondary antibody was incubated on a shaker at room temperature for 1 h. Washing with TBST was conducted 4 times, with 2.5 minutes each time. ECL was used for development to detect the expression level of p-AP2M1. Western blot bands were processed and converted using Image J and GraphPad software to calculate IC50.
IC50 (half maximal inhibitory concentration) refers to the half-inhibitory concentration of the measured antagonist. It can indicate the concentration of a certain drug or substance (inhibitor) that achieves half of the inhibition effect on certain biological processes (or certain substances involved in these processes, such as enzymes, cellular receptors, or microorganisms).

[1] = Blood-brain distribution in DPNP model rats; settings: SD, rat; for concentration at 6 h: oral; for Kp at 6 h: brain/plasma, po
Protocol: Experimental objective: This experiment aims to investigate the analgesic effect of test compounds on streptozotocin (STZ)-induced peripheral neuropathic pain (DPNP) in diabetic rat models and the brain-blood distribution of the compounds associated with the efficacy, via single oral gavage (ig.) administration.
After successful modeling, the baseline plantar pain threshold of the rats was tested using the Von Frey (UP-Down method) as the baseline pain threshold before administration, and the rats were evenly grouped according to their pain thresholds. The groups included a blank control group, a model group, a positive control group (1 mg/kg), a Compound 26 (0.5 mg/kg) group, and a Compound 26 (1 mg/kg) group. The next day, the rats were administered the vehicle or corresponding drugs. At 2 h, 3 h, 4 h, 5 h, and 6 h after administration, the pain threshold of the plantar region on the affected side of rats was determined using Von Frey filaments to calculate the pain threshold improvement rate of the test compounds against neuropathic pain in diabetic rats, and to observe the time-effect relationship. After the experiment, rats from groups G3-G5 (numbers 1-3 per group) were sacrificed, and plasma and brain tissue samples were collected for testing.

AAK1 (30-330) protein = target: T2, AAK1 (30-330) protein (Homo sapiens, UniProt Q2M2I8); test: CETSA test of binding ability to AAK1 protein (Western blot)
T2 construct: (His)6x (N); TEV protease cleavage site (N); made in house; host or cells: Escherichia coli BL21(DE3)
T2 sequence (Q2M2I8 30-330): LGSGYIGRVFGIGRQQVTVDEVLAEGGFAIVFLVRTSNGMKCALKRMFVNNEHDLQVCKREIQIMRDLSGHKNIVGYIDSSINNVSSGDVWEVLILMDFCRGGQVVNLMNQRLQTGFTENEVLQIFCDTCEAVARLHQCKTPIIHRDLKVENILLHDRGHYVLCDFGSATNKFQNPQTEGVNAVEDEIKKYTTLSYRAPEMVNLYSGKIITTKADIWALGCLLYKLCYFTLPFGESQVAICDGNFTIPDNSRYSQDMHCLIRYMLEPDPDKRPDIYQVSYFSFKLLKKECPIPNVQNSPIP
Protocol: Experimental objective: To detect the binding ability of compounds to AAK1 protein by means of a CETSA experiment.
Background principle: The CETSA experiment is a molecular detection means for measuring the affinity between drugs and target proteins. […] When a candidate drug is co-incubated with a target protein, if the candidate drug is an inhibitor of AAK1, it can bind to AAK1. […] On the contrary, the stability of the AAK1 protein after heating will be poorer, and the amount of the detected protein will be lower. In this way, the binding ability of the drug to the target protein can be evaluated, which is used for the screening of AAK1 protein inhibitors.
Expression of AAK1 (30-330) protein: The AAK1 sequence (residues 30-330) was cloned into the pET24N vector with an N-terminal (His)6x tag and a tobacco etch virus (TEV) protease cleavage site. The constructed vector was transformed into Escherichia coli BL21(DE3). When the bacteria were cultured with shaking to reach an OD value of 0.6, 1 mM IPTG was added. […] The bacterial cells were collected and subjected to ultrasonic disruption. The supernatant was obtained by centrifugation, and the protein was purified using Ni-NTA. After dialysis, the concentration and purity of the protein were determined.
CETSA sample preparation: Samples were incubated with candidate drugs, control drugs, and control reagents separately for 30 minutes. Each group of samples was heated at approximately 10 pre-set temperature points. After being returned to room temperature, the samples were centrifuged at 20000 g, and the supernatants were collected. Protein samples were denatured by heating at 100°C for 10 minutes with a sample buffer. After the samples were returned to room temperature, Western blot detection was performed on them; the protein loading amount was controlled at 20 µg. […] The same operations were followed, and Western blot detection was conducted. Protein electrophoresis: The voltage for the stacking gel was set at 60 V, and that for the separating gel was set at 120 V. After electrophoresis, electrotransfer was initiated. Electrotransfer conditions were set at 250 mA for 2 h. Blocking with 5% BSA was performed for 1 h. A specific primary antibody was added, and incubation was carried out overnight at 4°C on a shaker. Washing with TBST was conducted 4 times, with 2.5 minutes each time. A secondary antibody was incubated on a shaker at room temperature for 1 h. Washing with TBST was conducted 4 times, with 2.5 minutes each time. ECL was used for development to detect the expression levels of AAK1 protein in different groups and at each temperature point. Western blot bands were processed and converted using Image J and GraphPad software to calculate EC50.

[2] = test system: streptozotocin (STZ)-induced peripheral neuropathic pain (DPNP) in diabetic rat models; test: Efficacy test in diabetic peripheral neuropathic pain (DPNP), Von Frey pain threshold; type: in vivo, SD rats; settings: for MWT (g) After modeling: before administration; for MWT (g) 2h: 2 h after administration; for MWT (g) 4 h: 4 h after administration; for MWT (g) 5 h: 5 h after administration; for MWT (g) 6h: 6 h after administration; for duration of analgesia: time after administration
Protocol: Experimental methods: After the adaptation period, the rats were tested for baseline plantar pain threshold using the Von Frey (Up-Down method) before modeling. Subsequently, except for the blank control group, all other rats were fasted for 16 hours with free access to water and then intraperitoneally injected with streptozotocin for modeling (65 mg/kg; 2 mL/kg). One week after modeling, blood was collected from the tail tip to detect blood glucose levels after a 4-hour fast. Rats with blood glucose levels higher than 16.7 mmol/L were considered diabetic.

CC(C)C[C@](C)(N)COc1ccc(-c2c[nH]c3ncc(F)cc23)nc1C(F)F [Compound 26, (S)-1-{[2-(difluoromethyl)-6-(5-fluoro-1H-pyrrolo[2,3-b]pyridin-3-yl)pyridin-3-yl]oxy}-2,4-dimethylpentan-2-amine]
IC50 (AAK1): 0.01 to 0.1 µM
concentration at 6 h ([1]; brain, 0.5 mg/kg): 62.5 ng/mL and 688 ng/g
concentration at 6 h ([1]; brain, 1 mg/kg): 120 ng/mL and 1320 ng/g
Kp at 6 h ([1]; 0.5 mg/kg): 17.9
Kp at 6 h ([1]; 1 mg/kg): 17.6
concentration at 6 h ([1]; plasma, 0.5 mg/kg): 0.0385 µg/mL
concentration at 6 h ([1]; plasma, 1 mg/kg): 0.0753 µg/mL
EC50 (AAK1 (30-330) protein): 0.01 to 0.1 µM
MWT (g) After modeling ([2]; 0.5 mg/kg group, x±s, n=5): 6.97 ± 2.16 g
Pain threshold improvement rate 2h ([2]; 0.5 mg/kg single ig.): 50.87
MWT (g) 2h ([2]; 0.5 mg/kg single ig., x±s, n=5): 7.50 ± 2.37 g
Pain threshold improvement rate 3 h ([2]; 0.5 mg/kg single ig.): 54.93
MWT (g) 3 h ([2]; 0.5 mg/kg single ig., 3 h after administration, x±s, n=5): 9.63 ± 3.40 g
Pain threshold improvement rate 4h ([2]; 0.5 mg/kg single ig.): 35.29
MWT (g) 4 h ([2]; 0.5 mg/kg single ig., x±s, n=5): 6.23 ± 2.10 g
Pain threshold improvement rate 5 h ([2]; 0.5 mg/kg single ig.): 28.18
MWT (g) 5 h ([2]; 0.5 mg/kg single ig., x±s, n=5): 5.61 ± 3.00 g
Pain threshold improvement rate 6h ([2]; 0.5 mg/kg single ig.): 24.02
MWT (g) 6h ([2]; 0.5 mg/kg single ig., x±s, n=5): 4.82 ± 1.07 g
duration of analgesia ([2]; 0.5 mg/kg): ≤ 4 h
MWT (g) After modeling ([2]; 1 mg/kg group, x±s, n=5): 7.28 ± 2.09 g
Pain threshold improvement rate 2h ([2]; 1 mg/kg single ig.): 71.05
MWT (g) 2h ([2]; 1 mg/kg single ig., x±s, n=5): 12.72 ± 3.12 g
Pain threshold improvement rate 3 h ([2]; 1 mg/kg single ig.): 58.89
Pain threshold improvement rate 4h ([2]; 1 mg/kg single ig.): 59.53
MWT (g) 4 h ([2]; 1 mg/kg single ig., x±s, n=5): 9.96 ± 4.93 g
Pain threshold improvement rate 5 h ([2]; 1 mg/kg single ig.): 20.88
MWT (g) 5 h ([2]; 1 mg/kg single ig., x±s, n=5): 5.10 ± 1.55 g
Pain threshold improvement rate 6h ([2]; 1 mg/kg single ig.): 9.51
MWT (g) 6h ([2]; 1 mg/kg single ig., x±s, n=5): 4.05 ± 0.66 g
duration of analgesia ([2]; 1 mg/kg): ≤ 4 h
